{
  "source": "patent US20260216119A1",
  "about": "“NOVEL SOLUTIONS” (priority 2022, published 2026)",
  "key": {"[1]": {"conditions": "ambient conditions", "procedure": "A solution that remains intact to an extent acceptable for pharmaceutical use for the time required between preparing the solution and administering it to the patient (for example 2 hours, for example 1 hour) is considered herein to be “stable”."}, "[2]": {"procedure": "0.79 g Cremophor EL (Trade Mark) was weighed in an Erlenmeyer flask, and 60 mL aCSF (obtained from Tocris Pharma) was added. […] The solution was then placed in an ultrasonic bath maintained at 25-28° C. for 20 minutes. […] The solution was ultrasonicated for another 25 minutes.\nThe mixture was then filtered using a Millipore Millex-LG, PTFE, 0.20 μm filter (SLLG025SS).\n500 μL Cremophor EL was pipetted into an Erlenmeyer flask containing 40 mL in-house prepared aCSF. […] An additional 10 minutes of ultrasonication was carried out to ensure complete dissolution."}, "[3]": {"assay": "Calculated concentrations based on ventricle and CSF volumes", "type": "in vivo", "conditions": "dog; for Cmax: Beagle, icv or intrathecal, ventricle volume 2 ml; for Cmax CSF: CSF volume 20 mL"}, "[4]": {"biological_target": "MEK2 (Homo sapiens, UniProt P36507)", "sequence (P36507 whole entry, species assumed)": "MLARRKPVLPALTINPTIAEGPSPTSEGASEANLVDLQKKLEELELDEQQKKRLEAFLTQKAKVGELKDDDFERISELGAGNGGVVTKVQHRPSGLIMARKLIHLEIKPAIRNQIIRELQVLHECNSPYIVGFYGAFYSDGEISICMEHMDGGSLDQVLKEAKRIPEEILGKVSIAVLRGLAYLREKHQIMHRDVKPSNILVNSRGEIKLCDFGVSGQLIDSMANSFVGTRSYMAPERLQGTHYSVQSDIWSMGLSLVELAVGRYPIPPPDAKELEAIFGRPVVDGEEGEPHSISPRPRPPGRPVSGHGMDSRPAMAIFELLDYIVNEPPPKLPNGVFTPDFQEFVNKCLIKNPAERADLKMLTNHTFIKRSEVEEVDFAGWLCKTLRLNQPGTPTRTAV", "conditions": "cited from earlier work"}, "[5]": {"tested_on": "female rats", "conditions": "cited from earlier work"}, "[6]": {"tested_on": "rats", "conditions": "in 0.5% Cremophor in aqueous solution; cited from earlier work"}},
  "data": [
    {"smiles": "N#CC(=C(/N)Sc1ccccc1N)/C(C#N)=C(\\N)Sc1ccccc1N", "note": "[Example U0126, 1,4-Diamino-2,3-dicyano-1,4-bis(o-aminophenylmercapto) butadiene]", "values": [
      {"measurement": "time solid form remains intact", "setting": "[1]", "value": "several decades"},
      {"measurement": "measured content of U0126", "setting": "[2]; Example 2, clear solution after 0.20 μm PTFE filtration, 0.5% v/v Cremophor EL in aCSF", "value": 68, "unit": "µM"},
      {"measurement": "U0126 content of filtered samples", "setting": "[2]; Example 3, 0.5% Cremophor EL in aCSF, pH 8.6, after 0.20 μm PTFE filtration", "value": "85 to 99", "unit": "µM"},
      {"measurement": "Cmax", "setting": "[3]; 20 μM/0.5 mL", "value": 5, "unit": "µM"},
      {"measurement": "Cmax", "setting": "[3]; 100 μM/0.5 mL", "value": 25, "unit": "µM"},
      {"measurement": "Cmax", "setting": "[3]; 200 μM/0.5 mL", "value": 50, "unit": "µM"},
      {"measurement": "Cmax CSF", "setting": "[3]; 20 μM/0.5 mL", "value": 0.5, "unit": "µM"},
      {"measurement": "Cmax CSF", "setting": "[3]; 100 μM/0.5 mL", "value": 2.5, "unit": "µM"},
      {"measurement": "Cmax CSF", "setting": "[3]; 200 μM/0.5 mL", "value": 5, "unit": "µM"},
      {"measurement": "inhibitor of MEK2", "setting": "[4]", "value": "inhibitor"},
      {"measurement": "long-term neurologic outcome after stroke", "setting": "[5]", "value": "improves long-term neurologic outcome"},
      {"measurement": "maximum tolerated intracerebroventricular (ICV) concentration in vivo", "setting": "[6]", "value": 10, "unit": "µM"}
    ]}
  ]
}
